Results on 24 compounds are retold here after patent publication US9708328B2, “Pteridines useful as HCV inhibitors and methods for the preparation thereof” (Janssen Sciences Ireland UC, priority 2005, dated 2017).

Data set [1] deals with HCV replicon (HCV type 1b) in Huh-7 luc/neo cells. The experiment in a line: Stable replicon cell reporter assay (Huh-Luc, luciferase readout). Type of data set: cell-based. The note with it: Hepatitis C virus, Huh-7, 72 h, three days incubation, luciferase activity. The text has this: Stable Replicon Cell Reporter Assays:
The compounds of the present invention are examined for activity in the inhibition of HCV RNA replication in a cellular assay. […] The cellular assay is based on a bicistronic expression construct, as described by Lohmann et al. (1999) Science vol. 285 pp. 110-113 with modifications described by Krieger et al. (2001) Journal of Virology 75: 4614-4624, in a multi-target screening strategy. In essence, the method is as follows.
The assay utilizes the stably transfected cell line Huh-7 luc/neo (hereafter referred to as Huh-Luc). This cell line harbors an RNA encoding a bicistronic expression construct comprising the wild type NS3-NS5B regions of HCV type 1b translated from an Internal Ribosome Entry Site (IRES) from encephalomyocarditis virus (EMCV), preceded by a reporter portion (FfL-luciferase), and a selectable marker portion (neo^R, neomycine phosphotransferase). The construct is bordered by 5′ and 3′ NTRs (non-translated regions) from HCV type 1b. Continued culture of the replicon cells in the presence of G418 (neo^R) is dependent on the replication of the HCV RNA. The stably transfected replicon cells that express HCV RNA, which replicates autonomously and to high levels, encoding inter alia luciferase, are used for screening the antiviral compounds.
Cellular Assay Experimental Method:
The replicon cells are plated in 384 well plates in the presence of the test and control compounds which are added in various concentrations. Following an incubation of three days, HCV replication is measured by assaying luciferase activity (using standard luciferase assay substrates and reagents and a Perkin Elmer ViewLux™ ultraHTS microplate imager). Replicon cells in the control cultures have high luciferase expression in the absence of any inhibitor. The inhibitory activity of the compound on luciferase activity is monitored on the Huh-Luc cells, enabling a dose-response curve for each test compound.
For orientation: A replicon is a self-replicating genome or part of one, used to study replication in cells.

Data set [2] is described as follows: Pharmacokinetic profile after single oral administration: plasma, heart and liver levels. Type of data set: in vivo, male Swiss SPF (CD1)-mice. As to the method:
Compound nr. 21 was dissolved in a 10% hydroxypropyl-β-cyclodextrin (HP-β-CD) solution at a final concentration of 1 mg base-eq./ml, .pH 4.36.
Three animals were administered orally the solution of compound nr. 21 to obtain a dose of 20 mg base-eq./kg. Blood samples were taken at 30 min, 1, 2, 4, 8 and 24 h after oral dose administration. Plasma was obtained following centrifugation at 4° C. for 10 minutes at approximately 1900×g.
From each orally dosed animal individual samples of heart and liver were dissected and weighed. Tissue samples were homogenized in demineralized water.
Plasma and tissue samples were analysed for compound nr. 21, using a qualified research LC-MS/MS method.
A limited pharmacokinetic analysis was performed using WinNonlin™ Professional (Version 4.0.1). A non-compartmental analysis using the lin/log trapezoidal rule with lin/log interpolation was used for all data. The variability between animals is indicated by the standard deviation (st dev).

Read-outs that look alike come from different tables or passages of the source. Bounds are passed on as bounds.

One may read the EC50 as the midpoint of the concentration-response curve. Read a high EC50 as weaker potency. On to `Cc1cnccc1Nc1nc(-c2cc(Br)ccc2N2CCCC2)nc2nccnc12` [Compound 6, 2-(5-Bromo-2-pyrrolidin-1-ylphenyl)-4-(3-methyl-4-pyridylamino)pteridine], for which, in data set [1], the EC50 came out at 18000 nM.

In data set [1], `Fc1ccc(Br)cc1-c1nc(Nc2ccc(N3CCOCC3)cc2)c2nccnc2n1` [Compound 14, 2-(5-bromo-2-fluorophenyl)-4-(4-morpholinophenylamino)pteridine] returned a half-maximal effective concentration (EC50) of 8700 nM.

`Fc1ccc(Br)cc1-c1nc(N(Cc2ccccc2)c2ccncc2)c2nccnc2n1` [Compound 5, 4-[(benzyl)(4-pyridyl)amino]-2-(5-bromo-2-fluorophenyl)pteridine] had a concentration giving a half-maximal response (EC50) in data set [1] of 990 nM.

For `Fc1ccc(Cl)cc1-c1nc(Nc2ccncc2)c2nccnc2n1` [Compound 24, 2-(5-chloro-2-fluorophenyl)-4-(4-pyridylamino)pteridine], in data set [1], the midpoint of the response, the EC50, lay at 780 nM.

`OCCNc1nc(-c2cc(Br)ccc2F)nc2nccnc12` [Compound 11, 2-(5-bromo-2-fluorophenyl)-4-(2-hydroxyethylamino)pteridine] showed an EC50 in data set [1] of over 32000 nM.

Take `Cc1ccccc1Nc1nc(-c2cc(Br)ccc2F)nc2nccnc12` [Compound 9, 2-(5-bromo-2-fluorophenyl)-4-(2-tolylamino)pteridine]: a half-maximal effect in data set [1] (EC50) was put at 11000 nM.

For the compound `Fc1ccc(Br)cc1-c1nc(N(CCc2ccccc2)c2ccncc2)c2nccnc2n1` [Compound 22, 2-(5-bromo-2-fluorophenyl)-4-[(phenethyl)(4-pyridyl)amino]-pteridine], the EC50 in data set [1] was determined as 1960 nM.

As for `Fc1ccc(Br)cc1-c1nc(Nc2ccccc2)c2nccnc2n1` [Compound 8, 2-(5-bromo-2-fluorophenyl)-4-(phenylamino)pteridine], in data set [1], the concentration giving a half-maximal response (EC50) is over 32000 nM.

In turn, `FC(F)(F)c1cccc(-c2nc(Nc3ccncc3)c3nccnc3n2)c1` [Compound 26, 2-(3-trifluoromethylphenyl)-4-(4-pyridylamino)pteridine] came in with an EC50 in data set [1] of 2000 nM.

Turning to `CC(C)(C)CCN(c1ccncc1)c1nc(-c2cc(Br)ccc2F)nc2nccnc12` [Compound 4, 2-(5-bromo-2-fluorophenyl)-4-[(3,3-dimethylbutyl)(4-pyridyl)amino]pteridine], the EC50 in data set [1] was 480 nM.

In turn, `Fc1ccc(Br)cc1-c1nc(N2CCN(c3ccccn3)CC2)c2nccnc2n1` [Compound 12, 2-(5-bromo-2-fluorophenyl)-4-[4-(2-pyridyl)piperazin-1-yl]pteridine] had an EC50 in data set [1] of over 32000 nM.

The compound `CCCCN(c1ccncc1)c1nc(-c2cc(Br)ccc2F)nc2nccnc12` [Compound 3, 4-[(butyl)(4-pyridyl)amino]-2-(5-bromo-2-fluorophenyl)pteridine] returned a half-maximal effective concentration (EC50) in data set [1] of 2200 nM.

In turn, `Cc1cc(Nc2nc(-c3cc(Br)ccc3F)nc3nccnc23)ccn1` [Compound 15, 2-(5-bromo-2-fluorophenyl)-4-(2-methyl-4-pyridylamino)pteridine] displayed an EC50 in data set [1] of 3560 nM.

`Cc1cnccc1Nc1nc(-c2cc(Br)ccc2F)nc2nccnc12` [Compound 7, 2-(5-bromo-2-fluorophenyl)-4-(3-methyl-4-pyridylamino)pteridine] gave an EC50 in data set [1] of 950 nM.

In data set [1], `Clc1cccc(-c2nc(Nc3ccncc3)c3nccnc3n2)c1` [Compound 18, 2-(3-chlorophenyl)-4-(4-pyridylamino)pteridine] returned an EC50 of 1500 nM.

What is called Tmax is the time from dosing to the highest level. Regarding `O=C(NCCCN1CCCC1=O)c1cnccc1Nc1nc(-c2cc(Br)ccc2F)nc2nccnc12` [Compound 21, 4-[[2-(5-bromo-2-fluorophenyl)pteridin-4-yl]amino]-N-[3-(2-oxopyrrolidin-1-yl)propyl]nicotinamide], in data set [1], the EC50 stood at 58 nM. Besides, the AUC0-inf came to 1262 ng·h/mL in data set [2] (heart, 20 mg base-eq./kg oral); 7973 ng·h/mL in data set [2] (liver, 20 mg base-eq./kg oral); 332 ng·h/mL in data set [2] (plasma, 20 mg base-eq./kg oral). The “AUC(0-8 h)” value in data set [2] (heart, 20 mg base-eq./kg oral) came out at 1119 ng·h/mL; in data set [2] (liver, 20 mg base-eq./kg oral) it was 6965 ng·h/mL; in data set [2] (plasma, 20 mg base-eq./kg oral), 309 ng·h/mL. For the same compound, the Tmax in data set [2] (heart, 20 mg base-eq./kg oral) amounted to 0.5 h; in data set [2] (liver, 20 mg base-eq./kg oral) it was 0.5 h; in data set [2] (plasma, 20 mg base-eq./kg oral), 0.5 h. The “t1/2 (2-8 h)” value is listed as 3.4 h in data set [2] (heart, 20 mg base-eq./kg oral); 3.5 h in data set [2] (liver, 20 mg base-eq./kg oral); 2.9 h in data set [2] (plasma, 20 mg base-eq./kg oral). Further, the Cmax in data set [2] (heart, 20 mg base-eq./kg oral (Table 4)) worked out at 678 ng/mL; in data set [2] (liver, 20 mg base-eq./kg oral (Table 4)) it was 4057 ng/mL; in data set [2] (male, Swiss SPF (CD1), mouse, 20 mg/kg, heart, 0.5 h post dose, 20 mg base-eq./kg oral, read-out: Mean maximum tissue concentration (Cmax)), 678 ng/g; in data set [2] (male, Swiss SPF (CD1), mouse, 20 mg/kg, liver, 0.5 h post dose, 20 mg base-eq./kg oral, read-out: Mean maximum tissue concentration (Cmax)), 4060 ng/g; in data set [2] (plasma, 20 mg base-eq./kg oral), 220 ng/mL. In addition, the “Mean tissue level, heart” value in data set [2] (heart, time 24 h, 20 mg base-eq./kg oral, n=3, LLOQ between 5.00 and 13.16 ng/g) was “BQL^1)”. Further, the “Mean tissue level, liver” value in data set [2] (liver, time 24 h, 20 mg base-eq./kg oral, n=3, LLOQ between 5.00 and 13.16 ng/g) is reported as “BQL^1)”. The concentration at 0.5 h in data set [2] (male, Swiss SPF (CD1), mouse, plasma, time 0.5 h, 20 mg base-eq./kg oral, n=3, read-out: Mean plasma level) was found to be 220 ng/mL. Moreover, in data set [2] (male, Swiss SPF (CD1), mouse, plasma, time 1 h, 20 mg base-eq./kg oral, n=3, read-out: Mean plasma level), the concentration at 1 h worked out at 166 ng/mL. The concentration at 2 h in data set [2] (male, Swiss SPF (CD1), mouse, plasma, time 2 h, 20 mg base-eq./kg oral, n=3, read-out: Mean plasma level) stood at 21.7 ng/mL. Moreover, the concentration at 4 h in data set [2] (male, Swiss SPF (CD1), mouse, plasma, time 4 h, 20 mg base-eq./kg oral, n=3, read-out: Mean plasma level) came out at 20.3 ng/mL. Moreover, the concentration at 8 h in data set [2] (male, Swiss SPF (CD1), mouse, plasma, time 8 h, 20 mg base-eq./kg oral, n=3, read-out: Mean plasma level) turned out to be 5.52 ng/mL. In addition, the Mean plasma level result in data set [2] (plasma, time 24 h, 20 mg base-eq./kg oral, n=3, LLOQ 0.500 ng/ml) is “BQL^1)”.

Turning to `Fc1cccc(-c2nc(Nc3ccncc3)c3nccnc3n2)c1` [Compound 27, 2-(3-fluorophenyl)-4-(4-pyridylamino)pteridine], in data set [1], the EC50 was 3000 nM.

As to `CN(c1ccccc1)c1nc(-c2cc(Br)ccc2F)nc2nccnc12` [Compound 10, 2-(5-bromo-2-fluorophenyl)-4-[(methyl)(phenyl)amino]pteridine], a half-maximal response in data set [1] (EC50) required 11000 nM.

In data set [1], `COC(=O)c1cnccc1Nc1nc(-c2cc(Br)ccc2F)nc2nccnc12` [Compound 13, 4-[[2-(5-Bromo-2-fluorophenyl)pteridin-4-yl]amino]nicotinic acid methyl ester] came in with an EC50 of 4900 nM.

For `CCc1cnccc1Nc1nc(-c2cc(Cl)ccc2F)nc2nccnc12` [Compound 23, 2-(5-chloro-2-fluorophenyl)-4-(3-ethyl-4-pyridylamino)pteridine], in data set [1], it took 520 nM to reach a half-maximal effect (EC50).

`Fc1ccc(Br)cc1-c1nc(Nc2ccncc2)c2nccnc2n1` [Compound 1, 2-(5-bromo-2-fluorophenyl)-4-(4-pyridylamino)pteridine] had a concentration giving a half-maximal response (EC50) in data set [1] of 352 nM.

As to `CN(c1ccncc1)c1nc(-c2cc(Br)ccc2F)nc2nccnc12` [Compound 2, 2-(5-bromo-2-fluorophenyl)-4-[(methyl)(4-pyridyl)amino]pteridine], in data set [1], the EC50 is 3650 nM.

As to `Cc1cnccc1Nc1nc(-c2cc(Cl)ccc2F)nc2nccnc12` [Compound 25, 2-(5-chloro-2-fluorophenyl)-4-(3-methyl-4-pyridylamino)pteridine], the 50% effective concentration (EC50) in data set [1] was 480 nM.

Compound `Cc1cccc(-c2nc(Nc3ccncc3C)c3nccnc3n2)n1` [Compound 19, 2-(2-methyl-6-pyridyl)-4-[(3-methyl-4-pyridyl)amino]pteridine] had an EC50 in data set [1] of 12000 nM.
